Columns and labels:
[1] = UV/Vis absorbance at 400 nm and Yellowness Index of the ring-open isomer; assay type: physicochemical; settings: for Abs @ 400 nm, RO (Absorption of ring-open isomer at 400 nm): 2×10^−5 M solution, 1 cm pathlength cuvette
Text: In addition to the above, chromophores should have acceptable colour for both the ring-opened and ring-closed isomers. For example, the ring-open isomer of the chromophore should have a Yellowness Index (YI) of less than about 10 and an absorbance at 400 nm, as measured for a 2×10^−5 M solution in a 1 cm pathlength cuvette. For the ring-closed isomer of the chromophore, the lambda max should be between about 475 nm and 700 nm, tunable according to desired colour and number of chromophores in the composition.
(§1) UV/Vis spectra were obtained using an OceanOptics™ Spectrophotometer. A 2×10^−5 M solution of compound in solvent was prepared, and photofaded using visible light until absorption in the visible region of the spectrum stabilized. The sample was then irradiated with simulated sunlight (QSUN SS-150 Solar Simulator with xenon arc lamp) until the absorption spectrum stabilized. To obtain PSS in the presence of a UV blocking film, a second sample was prepared and irradiated as described, with a UV blocking film inserted in the light path when irradiating.

[2] = Photostationary state (PSS) and lambda max under simulated sunlight (solar simulator); assay type: physicochemical; settings: for PSS (SS) / PSS (Steady State): absorbance at photostationary state, 2×10^−5 M solution; for PSS (SS): simulated sunlight (solar simulator); for λmax (nm): peak in the visible range, ring-closed (dark) state; for PSS (Steady State): head of Table 3
Text: The term “photostationary state” (PSS) refers to an equilibrium state of a compound or material where the rate of the ring closing (forward) reaction is equal to the rate of the ring-opening reaction, when irradiated with light in a given region of the spectrum. In other words, the ratio of the ring-open isomer to the ring-closed isomer is at an equilibrium. PSS may be expressed with reference to a light source, or with reference to a type of light, for example, QUV, Xenon-arc lamp, Q-SUN, natural or filtered sunlight, UV, VIS, IR, NIR, full spectrum or the like, or with reference to a particular wavelength or range of wavelengths, or in the presence or absence of a filter. Some ring-open and ring-closed isomers may undergo isomerization from one to the other in response to different wavelengths of light. If a wavelength of light is used where only one of the isomers absorbs, irradiation results in complete isomerization to the other form. 254 nm, 313 nm or 365 nm light are commonly used in studies of UV-absorbing isomers, but this may not be representative of the PSS under other light conditions that include the visible spectrum such as natural or simulated sunlight (“full spectrum” light) and/or with filters that block a portion of the UV component of the light. For example, in a ring-closed (dark) state, the magnitude of the maximum absorbance in the visible range may change with the light source (FIG. 1). The wavelength at this peak in the visible range may be referred to as lambda max, or λmax. […] When full spectrum light from a solar simulator (Xenon arc lamp) is used as a light source (line B), a balance is achieved between the ring-closed (dark) state induced by the UV component, and a ring-open (faded) state induced by the visible component of the light. Inclusion of a UV blocking layer in the light path (line A) may reduce the UV component of the light, and the ring-opening reaction induced by the visible light component becomes more prominent. […] Where desired, the ratio of ring-open and ring-closed isomers at a PSS may be quantified by ^1H NMR spectroscopy, such as described in U.S. Pat. No. 7,777,055. In various embodiments, compounds with an increased absorbance at a photostationary state (PSS), or increased contrast ratio, are an improvement over other diarylethene compounds. A compound with a greater absorbance in the visible range can be used in lesser quantities in a formulation or material to achieve a desired contrast ratio, whereas a compound with a lower absorbance at a PSS may need a higher concentration to achieve a desired contrast ratio.
Photostationary State (PSS)
as §1

For CC(=O)Oc1cc2oc(-c3ccc(C(C)(C)C)cc3)c(C3=C(c4cc(-c5cc(C(C)(C)C)cs5)sc4-c4cc(C(C)(C)C)cs4)C(F)(F)C(F)(F)C3(F)F)c2cc1OC(C)=O [Chromophore S396, 2-(4-(tert-butyl)phenyl)-3-(2-(4,4″-di-tert-butyl-[2,2′:5′,2″-terthiophen]-3′-yl)-3,3,4,4,5,5-hexafluorocyclopent-1-en-1-yl)benzofuran-5,6-diyl diacetate], the “YI (Yellowness Index)” value [1] was 2.78, the “Abs @ 400 nm, RO (Absorption of ring-open isomer at 400 nm)” value (“Abs @ 400 nm, RO” below) [1] was 0.08 and the “PSS (SS)” value [2] was 0.278. For the same molecule, the “λmax (nm)” value [2] was 578 nm.
In the case of CC(C)(C)c1ccc(-c2oc3ccccc3c2C2=C(c3cc(-c4ccc(C(C)(C)C)s4)sc3-c3ccc(C(C)(C)C)s3)C(F)(F)C(F)(F)C2(F)F)cc1 [Chromophore S343, 2-(4-(tert-butyl)phenyl)-3-(2-(5,5″-di-tert-butyl-[2,2′:5′,2″-terthiophen]-3′-yl)-3,3,4,4,5,5-hexafluorocyclopent-1-en-1-yl)benzofuran], the “YI (Yellowness Index)” value [1] is reported as 4.87, the “Abs @ 400 nm, RO” value [1] is reported as 0.11 and the “PSS (Steady State)” value [2] is reported as 0.315. For the same molecule, the “λmax (nm)” value [2] was 573 nm.
With COc1ccc2oc(-c3ccc(C(C)(C)C)cc3)c(C3=C(c4cc(-c5cc6c(s5)C(C)(C)CCC6(C)C)sc4-c4cc5c(s4)C(C)(C)CCC5(C)C)C(F)(F)C(F)(F)C3(F)F)c2c1 [Chromophore S400] the “YI (Yellowness Index)” value [1] was 6.67, the “Abs @ 400 nm, RO” value [1] was 0.125 and the “PSS (SS)” value [2] was 0.306. For the same molecule, the “λmax (nm)” value [2] was 592 nm.
For COc1ccc2oc(-c3ccc(C(C)(C)C)cc3)c(C3=C(c4cc(-c5ccc(C(C)(C)C)s5)sc4-c4ccc(C(C)(C)C)s4)C(F)(F)C(F)(F)C3(F)F)c2c1 [Chromophore S344, 2-(4-(tert-butyl)phenyl)-3-(2-(5,5″-di-tert-butyl-[2,2′:5′,2″-terthiophen]-3′-yl)-3,3,4,4,5,5-hexafluorocyclopent-1-en-1-yl)-5-methoxybenzofuran], the “YI (Yellowness Index)” value [1] was 2.91, the “Abs @ 400 nm, RO” value [1] was 0.1 and the “PSS (Steady State)” value [2] was 0.337. The “λmax (nm)” value [2] was 583 nm.
In the case of COc1cc2oc(-c3ccc(C(C)(C)C)cc3)c(C3=C(c4cc(-c5ccc(C(C)(C)C)s5)sc4-c4ccc(C(C)(C)C)s4)C(F)(F)C(F)(F)C3(F)F)c2cc1OC [Chromophore S340, 2-(4-(tert-butyl)phenyl)-3-(2-(5,5″-di-tert-butyl-[2,2′:5′,2″-terthiophen]-3′-yl)-3,3,4,4,5,5-hexafluorocyclopent-1-en-1-yl)-5,6-dimethoxybenzofuran], the “YI (Yellowness Index)” value [1] is reported as 5.61, the “Abs @ 400 nm, RO” value [1] is reported as 0.128 and the “PSS (Steady State)” value [2] is reported as 0.417. The “λmax (nm)” value [2] was 591 nm.
For CCOC(=O)CCCOc1cc2oc(-c3ccc(C(C)(C)C)cc3)c(C3=C(c4cc(-c5cc(C(C)(C)C)cs5)sc4-c4cc(C(C)(C)C)cs4)C(F)(F)C(F)(F)C3(F)F)c2cc1OCCCC(=O)OCC [Chromophore S386, diethyl 4,4′-((2-(4-(tert-butyl)phenyl)-3-(2-(4,4″-di-tert-butyl-[2,2′:5′,2″-terthiophen]-3′-yl)-3,3,4,4,5,5-hexafluorocyclopent-1-en-1-yl)benzofuran-5,6-diyl)bis(oxy))dibutanoate], the “YI (Yellowness Index)” value [1] was 4.05, the “Abs @ 400 nm, RO” value [1] was 0.113 and the “PSS (SS)” value [2] was 0.351. For the same molecule, the “λmax (nm)” value [2] was 593 nm.
With CCOC(=O)CCCOc1cc2oc(-c3ccc(C(C)(C)C)cc3)c(C3=C(c4cc(-c5ccc(C(C)(C)C)s5)sc4-c4sc(C(C)(C)C)cc4C)C(F)(F)C(F)(F)C3(F)F)c2cc1OCCCC(=O)OCC [Chromophore S383, diethyl 4,4′-((2-(4-(tert-butyl)phenyl)-3-(2-(5,5″-di-tert-butyl-3-methyl-[2,2′:5′,2″-terthiophen]-3′-yl)-3,3,4,4,5,5-hexafluorocyclopent-1-en-1-yl)benzofuran-5,6-diyl)bis(oxy))dibutanoate] the “YI (Yellowness Index)” value [1] was 4.52, the “Abs @ 400 nm, RO” value [1] was 0.144 and the “PSS (Steady State)” value [2] was 0.408. The “λmax (nm)” value [2] was 590 nm.
